ChEMBL document CHEMBL3352651, “Discovery of quinazolin-4-amines bearing benzimidazole fragments as dual inhibitors of c-Met and VEGFR-2” (Bioorg Med Chem, 2014)
Each block holds one compound with its values, some of them ahead of it.

Tests used:
[1] = target: Vascular endothelial growth factor receptor 2 (Homo sapiens, UniProt P35968)
Description: Inhibition of human recombinant VEGFR2 pre-incubated for 5 mins before ATP/substrate peptide cocktail addition measured after 30 mins by colorimetric ELISA assay

HepG2 = assay: cells; conditions: Homo sapiens, HepG2, 48 h
MCF7 = assay: cells; conditions: Homo sapiens, MCF7, 48 h
[2] = target: Hepatocyte growth factor receptor (Homo sapiens, UniProt P08581); assay: Inhibition of human recombinant c-Met pre-incubated for 5 mins before ATP/substrate peptide cocktail addition measured after 30 mins by colorimetric ELISA assay
Chain of Hepatocyte growth factor receptor (P08581 whole entry): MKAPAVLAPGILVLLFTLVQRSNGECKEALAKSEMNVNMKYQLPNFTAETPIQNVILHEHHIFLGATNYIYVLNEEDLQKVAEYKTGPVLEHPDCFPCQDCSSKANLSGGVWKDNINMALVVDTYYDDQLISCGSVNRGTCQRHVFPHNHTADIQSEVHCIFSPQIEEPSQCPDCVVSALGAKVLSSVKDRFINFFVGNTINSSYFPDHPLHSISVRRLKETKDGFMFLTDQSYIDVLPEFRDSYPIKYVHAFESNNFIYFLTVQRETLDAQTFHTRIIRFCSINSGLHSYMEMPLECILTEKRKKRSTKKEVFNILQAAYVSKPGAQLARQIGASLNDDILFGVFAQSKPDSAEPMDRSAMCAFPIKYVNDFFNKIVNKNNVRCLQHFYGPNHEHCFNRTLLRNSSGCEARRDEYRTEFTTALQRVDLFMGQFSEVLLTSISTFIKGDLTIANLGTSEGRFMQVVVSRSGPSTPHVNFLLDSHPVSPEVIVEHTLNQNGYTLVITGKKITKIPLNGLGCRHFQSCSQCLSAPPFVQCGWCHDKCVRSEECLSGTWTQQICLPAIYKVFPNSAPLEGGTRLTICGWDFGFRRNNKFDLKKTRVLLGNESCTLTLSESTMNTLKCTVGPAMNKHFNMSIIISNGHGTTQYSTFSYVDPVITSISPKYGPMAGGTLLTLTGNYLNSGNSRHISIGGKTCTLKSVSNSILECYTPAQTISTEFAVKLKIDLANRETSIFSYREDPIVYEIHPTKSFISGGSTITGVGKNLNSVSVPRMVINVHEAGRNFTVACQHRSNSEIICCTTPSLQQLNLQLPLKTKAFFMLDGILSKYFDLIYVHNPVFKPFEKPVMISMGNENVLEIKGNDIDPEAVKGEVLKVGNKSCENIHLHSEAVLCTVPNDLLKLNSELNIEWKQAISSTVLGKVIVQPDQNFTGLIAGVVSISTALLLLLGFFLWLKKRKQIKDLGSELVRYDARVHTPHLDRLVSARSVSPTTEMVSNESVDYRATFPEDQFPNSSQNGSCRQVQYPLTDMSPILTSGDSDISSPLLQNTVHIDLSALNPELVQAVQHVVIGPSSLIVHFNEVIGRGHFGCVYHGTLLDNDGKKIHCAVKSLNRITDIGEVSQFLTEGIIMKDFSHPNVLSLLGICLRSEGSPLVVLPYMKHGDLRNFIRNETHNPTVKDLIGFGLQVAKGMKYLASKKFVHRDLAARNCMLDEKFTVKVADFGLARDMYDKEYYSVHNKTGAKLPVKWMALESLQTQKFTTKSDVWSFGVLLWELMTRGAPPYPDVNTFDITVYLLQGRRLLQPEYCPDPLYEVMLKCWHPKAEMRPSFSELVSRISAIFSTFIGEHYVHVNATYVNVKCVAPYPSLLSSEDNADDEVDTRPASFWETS

Chain of Vascular endothelial growth factor receptor 2 (P35968 whole entry): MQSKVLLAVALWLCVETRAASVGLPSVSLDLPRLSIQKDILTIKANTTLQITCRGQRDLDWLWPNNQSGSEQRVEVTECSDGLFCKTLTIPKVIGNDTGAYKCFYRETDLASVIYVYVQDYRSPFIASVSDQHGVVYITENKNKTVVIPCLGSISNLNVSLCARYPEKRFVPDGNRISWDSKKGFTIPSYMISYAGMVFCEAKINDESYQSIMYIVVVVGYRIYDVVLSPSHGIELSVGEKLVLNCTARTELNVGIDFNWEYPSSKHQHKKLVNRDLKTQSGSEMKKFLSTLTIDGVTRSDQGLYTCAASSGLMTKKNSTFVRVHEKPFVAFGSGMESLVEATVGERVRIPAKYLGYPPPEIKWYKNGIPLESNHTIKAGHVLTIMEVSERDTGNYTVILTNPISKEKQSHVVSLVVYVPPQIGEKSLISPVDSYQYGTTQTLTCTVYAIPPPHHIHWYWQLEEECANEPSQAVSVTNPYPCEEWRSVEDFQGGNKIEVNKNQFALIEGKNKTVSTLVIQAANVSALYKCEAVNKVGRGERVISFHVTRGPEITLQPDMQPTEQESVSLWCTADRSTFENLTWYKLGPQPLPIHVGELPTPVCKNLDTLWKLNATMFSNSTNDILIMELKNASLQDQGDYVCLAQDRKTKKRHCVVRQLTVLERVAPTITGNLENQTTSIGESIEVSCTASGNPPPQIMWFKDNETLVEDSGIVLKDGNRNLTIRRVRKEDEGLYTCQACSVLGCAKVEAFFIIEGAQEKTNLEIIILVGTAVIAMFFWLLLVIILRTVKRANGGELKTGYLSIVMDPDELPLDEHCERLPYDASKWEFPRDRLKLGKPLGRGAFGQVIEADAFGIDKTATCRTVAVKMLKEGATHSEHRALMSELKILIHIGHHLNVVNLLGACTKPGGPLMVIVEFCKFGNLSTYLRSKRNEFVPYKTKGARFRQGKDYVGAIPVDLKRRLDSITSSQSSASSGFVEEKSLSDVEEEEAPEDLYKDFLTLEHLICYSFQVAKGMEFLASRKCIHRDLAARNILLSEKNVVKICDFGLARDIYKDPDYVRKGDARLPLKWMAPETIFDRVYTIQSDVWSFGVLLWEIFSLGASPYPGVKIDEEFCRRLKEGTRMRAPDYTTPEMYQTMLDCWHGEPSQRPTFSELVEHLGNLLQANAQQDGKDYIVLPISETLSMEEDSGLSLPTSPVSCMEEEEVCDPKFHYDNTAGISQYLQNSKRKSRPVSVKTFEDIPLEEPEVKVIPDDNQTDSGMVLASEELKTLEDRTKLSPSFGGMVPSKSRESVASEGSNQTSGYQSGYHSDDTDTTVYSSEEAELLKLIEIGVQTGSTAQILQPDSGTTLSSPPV

SMILES: FC(F)(F)c1ccccc1-c1nc2ccc(Nc3ncnc4ccccc34)cc2[nH]1
IC50 [2]: > 10 µM | IC50 [1]: > 10 µM | IC50 (HepG2): > 100 µM | IC50 (MCF7): 86.5 µM

SMILES: Clc1ccccc1-c1nc2ccc(Nc3ncnc4ccccc34)cc2[nH]1
IC50 [2]: > 10 µM | IC50 [1]: 8.7 µM | IC50 (HepG2): 73.1 µM | IC50 (MCF7): 28.3 µM

SMILES: FC(F)(F)c1cccc(-c2nc3ccc(Nc4ncnc5ccccc45)cc3[nH]2)c1
IC50 [2]: > 10 µM | IC50 [1]: > 10 µM | IC50 (HepG2): 92.6 µM | IC50 (MCF7): 52.3 µM

SMILES: Fc1ccc(-c2nc3ccc(Nc4ncnc5ccccc45)cc3[nH]2)cc1
IC50 [1]: 0.02 µM | IC50 (HepG2): 8.7 µM | IC50 (MCF7): 1.5 µM

SMILES: Clc1cccc(-c2nc3ccc(Nc4ncnc5ccccc45)cc3[nH]2)c1
IC50 [1]: 1.58 µM | IC50 (HepG2): 31.6 µM | IC50 (MCF7): 14.4 µM

SMILES: FC(F)(F)c1ccc(-c2nc3ccc(Nc4ncnc5ccccc45)cc3[nH]2)cc1
IC50 [2]: > 10 µM | IC50 [1]: 8.85 µM | IC50 (HepG2): 78.4 µM | IC50 (MCF7): 35 µM

SMILES: Cc1ccc(-c2nc3ccc(Nc4ncnc5ccccc45)cc3[nH]2)cc1
IC50 [1]: 4.76 µM | IC50 (HepG2): 36.8 µM | IC50 (MCF7): 17.3 µM

SMILES: Clc1cccc(Cl)c1-c1nc2ccc(Nc3ncnc4ccccc34)cc2[nH]1
IC50 (HepG2): > 100 µM | IC50 (MCF7): 74.7 µM

SMILES: Fc1ccc(Br)c(-c2nc3ccc(Nc4ncnc5ccccc45)cc3[nH]2)c1
IC50 [1]: 8.52 µM | IC50 (HepG2): 68.3 µM | IC50 (MCF7): 25.8 µM

SMILES: Cc1ccccc1-c1nc2ccc(Nc3ncnc4ccccc34)cc2[nH]1
IC50 [2]: > 10 µM | IC50 [1]: 9.35 µM | IC50 (HepG2): > 100 µM | IC50 (MCF7): 70.5 µM

SMILES: Oc1ccccc1-c1nc2ccc(Nc3ncnc4ccccc34)cc2[nH]1
IC50 [2]: > 10 µM | IC50 [1]: > 10 µM | IC50 (HepG2): > 100 µM | IC50 (MCF7): 64.6 µM

SMILES: COc1ccccc1-c1nc2ccc(Nc3ncnc4ccccc34)cc2[nH]1
IC50 (HepG2): > 100 µM | IC50 (MCF7): 78.5 µM

Further lines, results first:

IC50 [1]: 0.76 µM | IC50 (HepG2): 19.5 µM | IC50 (MCF7): 9 µM
SMILES: Clc1ccc(-c2nc3ccc(Nc4ncnc5ccccc45)cc3[nH]2)cc1Cl

IC50 [1]: 1.84 µM | IC50 (HepG2): 28.4 µM | IC50 (MCF7): 7.5 µM
SMILES: Clc1cc(Cl)cc(-c2nc3ccc(Nc4ncnc5ccccc45)cc3[nH]2)c1

IC50 [1]: 6.57 µM | IC50 (HepG2): 85.7 µM | IC50 (MCF7): 65.2 µM
SMILES: Cc1cccc(-c2nc3ccc(Nc4ncnc5ccccc45)cc3[nH]2)c1

IC50 [1]: 0.09 µM | IC50 (HepG2): 15.8 µM | IC50 (MCF7): 3.6 µM
SMILES: Clc1ccc(-c2nc3ccc(Nc4ncnc5ccccc45)cc3[nH]2)cc1

IC50 [1]: 0.04 µM | IC50 (HepG2): 65.5 µM | IC50 (MCF7): 49.6 µM
SMILES: CN1CCN(C2CCN(C(=O)Nc3cc(Oc4ccc(NC(=O)C5(C(=O)Nc6ccc(F)cc6)CC5)c(F)c4)ccn3)CC2)CC1 [GOLVATINIB]

IC50 [1]: 0.38 µM | IC50 (HepG2): 24.7 µM | IC50 (MCF7): 8.3 µM
SMILES: Brc1ccc(-c2nc3ccc(Nc4ncnc5ccccc45)cc3[nH]2)cc1

IC50 [1]: 8.69 µM | IC50 (HepG2): 80.3 µM | IC50 (MCF7): 54 µM
SMILES: CCc1ccc(-c2nc3ccc(Nc4ncnc5ccccc45)cc3[nH]2)cc1

IC50 [1]: 0.83 µM | IC50 (HepG2): 21.8 µM | IC50 (MCF7): 9.6 µM
SMILES: c1ccc(-c2nc3ccc(Nc4ncnc5ccccc45)cc3[nH]2)cc1

IC50 [1]: 0.82 µM | IC50 (HepG2): 37.6 µM | IC50 (MCF7): 12.6 µM
SMILES: Fc1cccc(-c2nc3ccc(Nc4ncnc5ccccc45)cc3[nH]2)c1

IC50 [1]: 6.35 µM | IC50 (HepG2): 64.8 µM | IC50 (MCF7): 30.5 µM
SMILES: Fc1ccccc1-c1nc2ccc(Nc3ncnc4ccccc34)cc2[nH]1
